Data on nine molecules can be found in US8163793B2, “Proline derivatives” (Hoffman-La Roche Inc., priority 2009, dated 2012).

A word on the IC50: it is the midpoint of a concentration-inhibition curve.

Assay [1] deals with Cat L (UniProt P07711). The experiment in a line: Cathepsin enzyme inhibition assay (fluorogenic peptide substrate Z-Val-Val-Arg-AMC), Cathepsin L. It counts as biochemical, human and mouse. The conditions noted are these: enzyme 1 nM, substrate 20 μM, pH 6.5; read-out: CatL IC50. The essentials:
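Cathepsin L at 1 nM was mixed with compound, then started with 20 μM Z-Val-Val-Arg-AMC in pH 6.5 potassium phosphate with EDTA, Triton X-100 and 5 mM DTT. AMC fluorescence (ex 360/em 465 nm) was followed over 20 min. IC50 is given in μM.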

Assay [2] deals with Cathepsin S (UniProt P25774). Put plainly: Cathepsin enzyme inhibition assay (fluorogenic peptide substrate Z-Val-Val-Arg-AMC), Cathepsin S. The class given is biochemical, human and mouse. The conditions noted are these: enzyme 1 nM, substrate 20 μM, pH 6.5; read-out: CatS IC50. The essentials: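 Human or mouse cathepsin S (1 nM) was run in 100 mM potassium phosphate pH 6.5 with 5 mM EDTA, 0.001% Triton X-100 and 5 mM DTT. The rise in AMC fluorescence from cleavage was measured, and IC50 values were calculated by standard methods and expressed in μM.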

For `N#CC1(NC(=O)[C@@H]2C[C@@H](S(=O)(=O)c3ccc(OCC(F)(F)F)cc3Cl)CN2C(=O)C2(c3ccc(Cl)c(Cl)c3)CC2)CC1` [Example 239, (2S,4R)-4-[2-Chloro-4-(2,2,2-trifluoro-ethoxy)-benzenesulfonyl]-1-[1-(3,4-dichloro-phenyl)-cyclopropanecarbonyl]-pyrrolidine-2-carboxylic acid (1-cyano-cyclopropyl)-amide], the IC50 amounted to 84 nM in assay [1] and 0.08 nM in assay [2].
The matching figures for `N#CC1(NC(=O)[C@@H]2C[C@@H](S(=O)(=O)c3ccc(OCC(F)(F)F)cc3Cl)CN2C(=O)C2(c3ccccc3)CC2)CC1` [Example 240, (2S,4R)-4-[2-Chloro-4-(2,2,2-trifluoro-ethoxy)-benzenesulfonyl]-1-(1-phenyl-cyclopropanecarbonyl)-pyrrolidine-2-carboxylic acid (1-cyano-cyclopropyl)-amide]: 590 nM and 0.09 nM.
On the same counts, the results for `N#CC1(NC(=O)[C@@H]2C[C@@H](S(=O)(=O)c3ccc(OCC(F)(F)F)cc3Cl)CN2C(=O)C2CC2(F)F)CC1` (stereo partly drawn) [Example 241, (2S,4R)-4-[2-Chloro-4-(2,2,2-trifluoro-ethoxy)-benzenesulfonyl]-1-(2,2-difluoro-cyclopropanecarbonyl)-pyrrolidine-2-carboxylic acid (1-cyano-cyclopropyl)-amide] are 31800 nM and 0.33 nM.
On the same counts, the results for `CC(C)(C)OC(=O)NC1(C(=O)N2C[C@H](S(=O)(=O)c3ccc(OCC(F)(F)F)cc3Cl)C[C@H]2C(=O)NC2(C#N)CC2)CC1` [Example 242, {1-[(2S,4R)-4-[2-Chloro-4-(2,2,2-trifluoro-ethoxy)-benzenesulfonyl]-2-(1-cyano-cyclopropylcarbamoyl)-pyrrolidine-1-carbonyl]-cyclopropyl}-carbamic Acid Tert-butyl ester] are 1430 nM and 4.75 nM.
On to `N#CC1(NC(=O)[C@@H]2C[C@@H](S(=O)(=O)c3ccc(OCC(F)(F)F)cc3Cl)CN2C(=O)C2(C#N)CC2)CC1` [Example 243, (2S,4R)-4-[2-Chloro-4-(2,2,2-trifluoro-ethoxy)-benzenesulfonyl]-1-(1-cyano-cyclopropanecarbonyl)-pyrrolidine-2-carboxylic acid (1-cyano-cyclopropyl)-amide], for which the IC50 worked out at 12300 nM in assay [1] and 0.455 nM in assay [2].
The matching figures for `N#CC1(NC(=O)[C@@H]2C[C@@H](S(=O)(=O)c3ccc(OCC(F)(F)F)cc3Cl)CN2C(=O)Cc2ccc(Cl)cc2)CC1` [Example 244, (2S,4R)-1-[2-(4-Chloro-phenyl)-acetyl]-4-[2-chloro-4-(2,2,2-trifluoro-ethoxy)-benzenesulfonyl]-pyrrolidine-2-carboxylic acid (1-cyano-cyclopropyl)-amide]: 5900 nM and 3.15 nM.
`N#CC1(NC(=O)[C@@H]2C[C@@H](S(=O)(=O)c3ccc(-c4ccnc(Cl)c4)cc3C(F)(F)F)CN2C(=O)C2(C(F)(F)F)CC2)CC1` [Example 245, (2S,4R)-4-[4-(2-Chloro-pyridin-4-yl)-2-trifluoromethyl-benzenesulfonyl]-1-(1-trifluoromethyl-cyclopropanecarbonyl)-pyrrolidine-2-carboxylic acid (1-cyano-cyclopropyl)-amide]: the IC50 in assay [1] is 39200 nM; in assay [2], 0.168 nM.
On the same counts, the results for `N#CC1(NC(=O)[C@@H]2C[C@@H](S(=O)(=O)c3ccc(OCC(F)(F)F)cc3Cl)CN2C(=O)C2CC2c2ccccc2)CC1` (stereo partly drawn) [Example 246] are 185 nM and 0.245 nM.
The matching figures for `N#CC1(NC(=O)[C@@H]2C[C@@H](S(=O)(=O)c3ccc(OCC(F)(F)F)cc3Cl)CN2C(=O)C2CC2c2ccccc2)CC1` (stereo partly drawn) [Example 247]: 3440 nM and 0.385 nM.
